Data taken from patent US20190313644A1, “METHOD FOR FRUIT THINNING” (Adama Agan Ltd., priority 2015, published 2019).

What was measured:
[1] = test system: Golden Delicious variety of apples; test: Fruit thinning field trial, first and optional second application of metamitron; format: in vivo; conditions: for Thinning Effect (%): vs untreated control
Protocol: A formulation of metamitron in the form of a soluble granule was diluted to the desired concentration with water. The following concentrations were prepared: • 1.1 Kg/ha metamitron (low dosage) • 1.65 Kg/ha metamitron (medium dosage) • 2.2 Kg/ha metamitron (high dosage) The experiments were conducted on the Golden Delicious variety of apples in Germany and Italy. The first application of metamitron was applied to the fruit trees in May when the fruit was at fruiting stage BBCH69-BBCH72. The second application of metamitron was applied, if applicable, five days after the first application. Local meteorological data was obtained from local weather stations. The meteorological data was inputted into the MaluSim Carbon Balance Model of Lakso (described at […].cornell.edu/apple_thin_help.html, the contents of which are hereby incorporated by reference) in order to obtain the level of carbohydrates available in the fruit tree. The thinning effect is calculated by comparing the treated fruit trees with the untreated control as follows: […]

[2] = test system: Golden Delicious variety of apples; test: Photosynthetic activity levels of the fruit bearing tree after the first application; format: in vivo
Protocol: The experiments were conducted on the Golden Delicious variety of apples in Germany and Italy. The first application of metamitron was applied to the fruit trees in May when the fruit was at fruiting stage BBCH69-BBCH72. The second application of metamitron was applied, if applicable, five days after the first application. […] Based on this and on the predicted meteorological data for the time of the second application, the second application should be applied at a high dose in order to effectively thin the fruit bearing tree. […] No over-thinning was observed.

[3] = Germany, 1st application 1.65 Kg/ha, 2nd application 0 Kg/ha
[4] = Germany, 1st application 1.65 Kg/ha, 2nd application 1.1 Kg/ha
[5] = Germany, 1st application 1.65 Kg/ha, 2nd application 2.2 Kg/ha
[6] = Germany, 1st application 2.2 Kg/ha, 2nd application 0 Kg/ha
[7] = Germany, 1st application 2.2 Kg/ha, 2nd application 1.1 Kg/ha
[8] = Germany, 1st application 2.2 Kg/ha, 2nd application 1.65 Kg/ha
[9] = Germany, 1st application 2.2 Kg/ha, 2nd application 2.2 Kg/ha
[10] = Italy, 1st application 1.65 Kg/ha, 2nd application 0 Kg/ha
[11] = Italy, 1st application 1.65 Kg/ha, 2nd application 1.1 Kg/ha
[12] = Italy, 1st application 1.65 Kg/ha, 2nd application 2.2 Kg/ha
[13] = Italy, 1st application 2.2 Kg/ha, 2nd application 0 Kg/ha
[14] = Italy, 1st application 2.2 Kg/ha, 2nd application 2.2 Kg/ha

**Q.** Which results are given for `Cc1nnc(-c2ccccc2)c(=O)n1N` [metamitron]?
**A.** Fruit Load (fruits/tcsa) [1, 3]: 11.20 fruits/tcsa; Thinning Effect (%) [1, 3]: 33.2%; Fruit Load (fruits/tcsa) [1, 4]: 11.42 fruits/tcsa; Thinning Effect (%) [1, 4]: 31.8%; Fruit Load (fruits/tcsa) [1, 5]: 6.83 fruits/tcsa; Thinning Effect (%) [1, 5]: 59.3%; Fruit Load (fruits/tcsa) [1, 6]: 11.44 fruits/tcsa; Thinning Effect (%) [1, 6]: 31.8%; Fruit Load (fruits/tcsa) [1, 7]: 11.40 fruits/tcsa; Thinning Effect (%) [1, 7]: 32.0%; Fruit Load (fruits/tcsa) [1, 8]: 11.98 fruits/tcsa; Thinning Effect (%) [1, 8]: 28.5%; Fruit Load (fruits/tcsa) [1, 9]: 8.07 fruits/tcsa; Thinning Effect (%) [1, 9]: 51.8%; Fruit Load (fruits/tcsa) [1, 10]: 12.33 fruits/tcsa; Thinning Effect (%) [1, 10]: 31.27%; Fruit Load (fruits/tcsa) [1, 11]: 12.30 fruits/tcsa; Thinning Effect (%) [1, 11]: 31.39%; Fruit Load (fruits/tcsa) [1, 12]: 9.58 fruits/tcsa; Thinning Effect (%) [1, 12]: 46.57%; Fruit Load (fruits/tcsa) [1, 13]: 12.67 fruits/tcsa; Thinning Effect (%) [1, 13]: 29.38%; Fruit Load (fruits/tcsa) [1, 14]: 9.37 fruits/tcsa; Thinning Effect (%) [1, 14]: 47.75%; Photosynthetic Activity levels ([2]; Germany, after 1st application 1.65 Kg/ha): Low; Photosynthetic Activity levels ([2]; Germany, after 1st application 2.2 Kg/ha): Low; Photosynthetic Activity levels ([2]; Italy, after 1st application 1.65 Kg/ha): Low; Photosynthetic Activity levels ([2]; Italy, after 1st application 2.2 Kg/ha): Low
